Data reported in US20170015654A1, “PYRIDAZINE COMPOUND” (TAKEDA PHARMACEUTICAL COMPANY LIMITED, priority 2014, published 2017).

Biological target: T1, SCD (Homo sapiens, UniProt O00767)
T1 construct: HCT116 (ATCC (American Type Culture Collection)) was inoculated at 1×10^5 cells/well to a 96-well plate; host or cells: HCT116
T1 sequence (O00767 1-359): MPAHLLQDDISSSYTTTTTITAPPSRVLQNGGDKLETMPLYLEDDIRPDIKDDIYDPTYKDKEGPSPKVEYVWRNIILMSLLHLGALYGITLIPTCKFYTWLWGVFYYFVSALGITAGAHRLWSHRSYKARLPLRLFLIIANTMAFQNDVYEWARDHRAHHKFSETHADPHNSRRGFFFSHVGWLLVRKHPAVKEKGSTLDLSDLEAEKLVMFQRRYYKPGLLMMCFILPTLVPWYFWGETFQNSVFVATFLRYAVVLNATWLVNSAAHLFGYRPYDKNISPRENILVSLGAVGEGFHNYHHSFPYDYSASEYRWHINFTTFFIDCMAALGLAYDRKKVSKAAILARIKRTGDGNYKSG
Assay: Measurement of SCD inhibitory activity using human large intestine cancer cell line (HCT116 cell)
Type: cell-based
Settings: HCT-116; 1 μM compound; HCT116 cells; [14C]stearic acid, 3 hours; read-out: Rate of inhibition of SCD activity at compound concentration of 1 μM
Description: Measurement of SCD Inhibitory Activity Using Human Large Intestine Cancer Cell Line (HCT116 Cell)
HCT116 (ATCC (American Type Culture Collection)) was inoculated at 1×10^5 cells/well to a 96-well plate and cultured overnight in DMEM (Dulbecco's modified Eagle medium) containing 10% FBS (fetal bovine serum) (AusGeneX PTY LTD.). After the culture, each well was washed twice with phosphate-buffered saline (PBS) (200 μL). Then, a reaction medium (DMEM, penicillin/streptomycin, 0.3% BSA) containing 1.5 μM of the test compound was added thereto at 40 μL/well, and the plate was left standing for 15 minutes in a CO2 incubator (37° C.). A reaction medium containing 0.1 μCi of [^14C]stearic acid was added at 20 μL/well to the plate thus left standing, and the plate was left standing for 3 hours in a CO2 incubator (37° C.). Each well of the plate thus left standing was washed twice with 200 μL of PBS. Then, 2.5 N NaOH was added thereto at 20 μL/well, and the plate was provided with a plate seal and then incubated overnight in a heat sterilizer set to 55° C. A formic acid:methanol:chloroform (1:16:4) solution was added at 200 μL/well to the plate thus left standing. Further, the mixture in each well was separated into two layer by the addition of 200 μL of pure water. After the separation, a 10 μL aliquot was separated from the lower layer, spotted on a reverse-phase TLC plate (RP-18, 1154230001, Merck KGaA), and developed with an acetonitrile:pure water:acetic acid (95:4.5:0.5) solution. After drying, the TLC plate was transferred to Imaging Plate (Fuji Photo Film) for 5 hours or longer. Detection was carried out using FLA7000 (GE Healthcare Japan Corp.), and the obtained spot images were digitalized using ImageQuant TL (GE Healthcare Japan Corp.) to determine the rate of inhibition of SCD activity (%).

Structure (SMILES) | inhibition at 1 µM
N#CC1(c2ccc(S(F)(F)(F)(F)F)cc2)CCN(c2ccc(-c3nc(CO)ns3)nn2)CC1 [Example 108, 1-(6-(3-(Hydroxymethyl)-1,2,4-thiadiazol-5-yl)pyridazin-3-yl)-4-(4-(pentafluorosulfanyl)phenyl)piperidine-4-carbonitrile] | 100%
COC1(c2ccc(S(F)(F)(F)(F)F)cc2)CCN(c2ccc(-c3nc(CO)ns3)nn2)CC1 [Example 110, (5-(6-(4-Methoxy-4-(4-(pentafluorosulfanyl)phenyl)piperidin-1-yl)pyridazin-3-yl)-1,2,4-thiadiazol-3-yl)methanol] | 98%
COC1(c2ccc(S(F)(F)(F)(F)F)cc2)CCN(c2ccc(-c3nnc(CO)s3)nn2)CC1 [Example 111, (5-(6-(4-Methoxy-4-(4-(pentafluorosulfanyl)phenyl)piperidin-1-yl)pyridazin-3-yl)-1,3,4-thiadiazol-2-yl)methanol] | 101%
OCc1noc(-c2ccc(N3CCC(c4ccc(C(F)(F)F)cc4)(C(F)(F)F)CC3)nn2)n1 [Example 82, (5-(6-(4-(Trifluoromethyl)-4-(4-(trifluoromethyl)phenyl)piperidin-1-yl)pyridazin-3-yl)-1,2,4-oxadiazol-3-yl)methanol] | 99%
N#CC1(c2ccc(S(F)(F)(F)(F)F)cc2)CCN(c2ccc(-c3nnc(CO)o3)nn2)CC1 [Example 58, 1-(6-(5-(Hydroxymethyl)-1,3,4-oxadiazol-2-yl)pyridazin-3-yl)-4-(4-(pentafluorosulfanyl)phenyl)piperidine-4-carbonitrile] | 97%
N#CC1(c2ccc(S(F)(F)(F)(F)F)cc2)CCN(c2ccc(-c3nnc(CO)s3)nn2)CC1 [Example 109, 1-(6-(5-(Hydroxymethyl)-1,3,4-thiadiazol-2-yl)pyridazin-3-yl)-4-(4-(pentafluorosulfanyl)phenyl)piperidine-4-carbonitrile] | 96%
OCc1nnc(-c2ccc(N3CCC(c4ccc(C(F)(F)F)cc4)(C(F)(F)F)CC3)nn2)s1 [Example 113, (5-(6-(4-(Trifluoromethyl)-4-(4-(trifluoromethyl)phenyl)piperidin-1-yl)pyridazin-3-yl)-1,3,4-thiadiazol-2-yl)methanol] | 99%
OCc1nsc(-c2ccc(N3CCC(c4ccc(C(F)(F)F)cc4)(C(F)(F)F)CC3)nn2)n1 [Example 112, (5-(6-(4-(Trifluoromethyl)-4-(4-(trifluoromethyl)phenyl)piperidin-1-yl)pyridazin-3-yl)-1,2,4-thiadiazol-3-yl)methanol] | 97%
OCc1nnc(-c2ccc(N3CCC(c4ccc(C(F)(F)F)cc4)(C(F)(F)F)CC3)nn2)o1 [Example 84, (5-(6-(4-(Trifluoromethyl)-4-(4-(trifluoromethyl)phenyl)piperidin-1-yl)pyridazin-3-yl)-1,3,4-oxadiazol-2-yl)methanol] | 99%
COC1(c2ccc(S(F)(F)(F)(F)F)cc2)CCN(c2ccc(-c3nnc(CO)o3)nn2)CC1 [Example 93, (5-(6-(4-Methoxy-4-(4-(pentafluorosulfanyl)phenyl)piperidin-1-yl)pyridazin-3-yl)-1,3,4-oxadiazol-2-yl)methanol] | 99%
